Our source for the EC50 values is patent US20240327393A1 (SIRONAX LTD., priority 2021, published 2024).

Molecules are shown by their SMILES.

This experiment deals with HT-1080 (ATCC, CCL-121) cells. The experiment can be described thus: HT-1080 cell viability assay with ferroptosis inducer RSL3 (Cell Titer-Glo). The experiment is classed as cell-based. Particulars: Homo sapiens; HT-1080 cells treated with RSL3; 3-fold, 10-point dilution, 1.1 μM highest concentration; Table 3; read-out: EC50 (nM), ferroptosis inhibitory activity. Summed up: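 EC50 was derived by sigmoidal dose-response regression of CellTiter-Glo luminescence viability, expressed relative to untreated wells. Compounds were tested in a ten-point, threefold dilution series (highest 1.1 μM) in the presence of the ferroptosis inducer RSL3. HT-1080 cells had been seeded at 6000 per well and grown overnight first.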
On the technique in general: ATP-based viability assays read luminescence as a measure of living cells.
Turning to `Cc1cc(N2CCC(C(F)(F)F)CC2)ccc1Nc1ccc2nccn2c1` [Compound 624, N-(2-methyl-4-(4-(trifluoromethyl)piperidin-1-yl)phenyl) imidazo[1,2-a]pyridin-6-amine], the EC50 (usually the concentration giving half of the maximal effect) lay within 0.1 to 100 nM.
`Cc1cc(N2CCC(C(F)(F)F)CC2)ccc1Nc1ccn2ncc(C(N)=O)c2c1` [Compound 625, 5-((2-methyl-4-(4-(trifluoromethyl)piperidin-1-yl)phenyl)amino) pyrazolo[1,5-a]pyridine-3-carboxamide]: the EC50 lay in the range of 0.1 to 100 nM.
The value for `Cc1cc(N2CC(F)(F)C2)ccc1Nc1ccc2c(c1)OCCC(=O)N2` [Compound 626, 8-((4-(3,3-difluoroazetidin-1-yl)-2-methylphenyl)amino)-2,3-dihydrobenzo[b][1,4]oxazepin-4(5H)-one] was 0.1 to 100 nM.
As for `Cc1cc(N2CC(F)(F)C2)ccc1Nc1ccc2c(c1)OCC(N)C(=O)N2` (centres unmarked) [Compound 627, 3-amino-8-((4-(3,3-difluoroazetidin-1-yl)-2-methylphenyl)amino)-2,3-dihydrobenzo[b][1,4]oxazepin-4(5H)-one], the figure is 0.1 to 100 nM; as for `Cc1cc(N2CCC(C(F)(F)F)C2)ccc1Nc1ccc2c(c1)OCCC(=O)N2` (centres unmarked) [Compound 628, 8-((2-methyl-4-(3-(trifluoromethyl)pyrrolidin-1-yl)phenyl)amino)-2,3-dihydrobenzo[b][1,4]oxazepin-4(5H)-one], 0.1 to 100 nM; as for `Cc1cc(N2CCC(F)(F)CC2)ccc1Nc1ccc2c(c1)OCCC(=O)N2` [Compound 629, 8-((4-(4,4-difluoropiperidin-1-yl)-2-methylphenyl)amino)-2,3-dihydrobenzo[b][1,4]oxazepin-4(5H)-one], 0.1 to 100 nM.
As for `Cc1cc(N2CCC(C(F)(F)F)CC2)ccc1Nc1ccc2ncc(C(N)=O)n2c1` [Compound 630, 6-((2-methyl-4-(4-(trifluoromethyl)piperidin-1-yl)phenyl)amino) imidazo[1,2-a]pyridine-3-carboxamide], the figure is 0.1 to 100 nM; as for `Cc1cc(N2CCC(C(F)(F)F)CC2)ccc1Nc1ccc2c(c1)OCC(=O)N(C)C2` [Compound 631, 4-methyl-8-((2-methyl-4-(4-(trifluoromethyl)piperidin-1-yl)phenyl)amino)-4,5-dihydrobenzo[f][1,4]oxazepin-3(2H)-one], 0.1 to 100 nM; as for `Cc1cc(N2CC(O)(C(F)(F)F)C2)ccc1Nc1ccc2c(c1)OCC(=O)N2` [Compound 632, 7-({4-[3-hydroxy-3-(trifluoromethyl)azetidin-1-yl]-2-methylphenyl}amino)-2,4-dihydro-1,4-benzoxazin-3-one], 0.1 to 100 nM.
Take `COC1(C(F)(F)F)CN(c2ccc(Nc3ccc4c(c3)OCC(=O)N4)c(C)c2)C1` [Compound 633, 7-({4-[3-methoxy-3-(trifluoromethyl)azetidin-1-yl]-2-methylphenyl}amino)-2,4-dihydro-1,4-benzoxazin-3-one]: the EC50 fell in the range of 0.1 to 100 nM.
Regarding `Cc1cc(NC(C)(C)C)ccc1Nc1ccc2c(c1)OCC(=O)N2` [Compound 634, 7-((4-(tert-butylamino)-2-methylphenyl)amino)-2H-benzo[b][1,4]oxazin-3(4H)-one], the EC50 lay within 0.1 to 100 nM.
The value for `CCNc1ccc(Nc2ccc3c(c2)OCC(=O)N3)c(C)c1` [Compound 635, 7-((4-(ethylamino)-2-methylphenyl)amino)-2H-benzo[b][1,4]oxazin-3(4H)-one] was 0.1 to 100 nM.
As for `Cc1cc(N2CC(F)(F)C(F)(F)C2)ccc1Nc1ccc2c(c1)OCC(=O)N2` [Compound 636, 7-((2-methyl-4-(3,3,4,4-tetrafluoropyrrolidin-1-yl)phenyl)amino)-2H-benzo[b][1,4]oxazin-3(4H)-on], the figure is 0.1 to 100 nM; as for `Cc1cc(N2C[C@@H](C)O[C@@H](C)C2)ccc1Nc1ccc2cn(C)nc2c1` [Compound 637, N-(4-((2S,6R)-2,6-dimethylmorpholino)-2-methylphenyl)-2-methyl-2H-indazol-6-amine], 0.1 to 100 nM; as for `Cc1cc(N2C[C@@H](C)O[C@@H](C)C2)ccc1Nc1ccc2cnn(C)c2c1` [Compound 638, N-(4-((2S,6R)-2,6-dimethylmorpholino)-2-methylphenyl)-1-methyl-1H-indazol-6-amine], 0.1 to 100 nM.
The value for `COC1(C)CN(c2ccc(Nc3ccc4c(c3)OCC(=O)N4)c(C)c2)C1` [Compound 639, 7-((4-(3-methoxy-3-methylazetidin-1-yl)-2-methylphenyl)amino)-2H-benzo[b][1,4] oxazin-3(4H)-one] was 0.1 to 100 nM; that for `Cc1cc(N2CC(OC(C)C)C2)ccc1Nc1ccc2c(c1)OCC(=O)N2` [Compound 640, 7-((4-(3-isopropoxyazetidin-1-yl)-2-methylphenyl)amino)-2H-benzo[b][1,4]oxazin-3(4H)-one] was 0.1 to 100 nM; that for `Cc1cc(N2CC3CC3C2)ccc1Nc1ccc2c(c1)OCC(=O)N2` (centres unmarked) [Compound 641, 7-((4-(3-azabicyclo[3.1.0]hexan-3-yl)-2-methylphenyl)amino)-2H-benzo[b][1,4]oxazin-3(4H)-one] was 0.1 to 100 nM.
Take `CC1CC(C(F)(F)F)CCN1c1ccc(Nc2ccc3c(c2)OCC(=O)N3)cc1` (centres unmarked) [Compound 642, 7-((4-(2-methyl-4-(trifluoromethyl)piperidin-1-yl)phenyl)amino)-2H-benzo[b][1,4]oxazin-3(4H)-one]: the EC50 lay in the range of 0.1 to 100 nM.
The value for `Cc1cc(N2CCC(C(F)(F)F)CC2)ccc1Nc1ccc2c(c1)NCCC(=O)N2` [Compound 643, 7-((2-methyl-4-(4-(trifluoromethyl)piperidin-1-yl)phenyl)amino)-1,3,4,5-tetrahydro-2H-benzo[b][1,4]diazepin-2-one] was 0.1 to 100 nM; that for `Cc1cc(N2CCC(C(F)(F)F)CC2)ccc1Nc1ccc2c(c1)C(=O)NCC(=O)N2` [Compound 644, 7-((2-methyl-4-(4-(trifluoromethyl)piperidin-1-yl)phenyl)amino)-3,4-dihydro-1H-benzo[e][1,4]diazepine-2,5-dione] was 0.1 to 100 nM; that for `COC1(C(F)(F)F)CN(c2ccc(Nc3ccc4c(c3)OCCC(=O)N4)c(C)c2)C1` [Compound 645, 8-[4-[3-methoxy-3-(trifluoromethyl)azetidin-1-yl]-2-methyl-anilino]-3,5-dihydro-2H-1,5-benzoxazepin-4-one] was 0.1 to 100 nM.
As for `Cc1cc(N2CCC(C(F)(F)F)CC2)ccc1Nc1ccc2c(c1)OCC(O)C(=O)N2` (centres unmarked) [Compound 646, 3-hydroxy-8-((2-methyl-4-(4-(trifluoromethyl)piperidin-1-yl)phenyl)amino)-2,3-dihydrobenzo[b][1,4]oxazepin-4(5H)-one], the figure is 0.1 to 100 nM; as for `COC1(C(F)(F)F)CCN(c2ccc(Nc3ccc4c(c3)OCCC(=O)N4)c(C)c2)C1` (centres unmarked) [Compound 647, 8-((4-(3-methoxy-3-(trifluoromethyl)pyrrolidin-1-yl)-2-methylphenyl)amino)-2,3-dihydrobenzo[b][1,4]oxazepin-4(5H)-one], 0.1 to 100 nM.
As for `Cc1cc(N2C[C@@H](C)O[C@@H](C)C2)ccc1Nc1ccc2cn[nH]c2c1` [Compound 648, N-(2-methyl-4-((2S,6R)-2,6-dimethylmorpholino)phenyl)-1H-indazol-6-amine], the figure is 0.1 to 100 nM; as for `Cc1cc(N2CC(O)(C(F)(F)F)C2)ccc1Nc1ccc2c(c1)OCCC(=O)N2` [Compound 649, 8-[4-[3-hydroxy-3-(trifluoromethyl)azetidin-1-yl]-2-methyl-anilino]-3,5-dihydro-2H-1,5-benzoxazepin-4-one], 0.1 to 100 nM; as for `Cc1cc(N2CCC(C(F)(F)F)CC2)ccc1Nc1ccc2c(c1)COCC(=O)N2` [Compound 650, 7-((2-methyl-4-(4-(trifluoromethyl)piperidin-1-yl)phenyl)amino)-1,5-dihydrobenzo[e][1,4]oxazepin-2(3H)-one], 0.1 to 100 nM.
Consider `Cc1cc(N2CC(O)(C(F)(F)F)C2)ccc1Nc1ccc2c(c1)ncn2C` [Compound 651, 1-[3-methyl-4-[(1-methylbenzimidazol-5-yl)amino]phenyl]-3-(trifluoromethyl)azetidin-3-ol], for which the EC50 is 0.1 to 100 nM.
As for `Cc1cc(N2CC(OC(F)F)C2)ccc1Nc1ccc2c(c1)OCC(=O)N2` [Compound 652, 7-[4-[3-(difluoromethoxy)azetidin-1-yl]-2-methyl-anilino]-4H-1,4-benzoxazin-3-one], the figure is 0.1 to 100 nM.
The value for `Cc1cc(OC(F)F)ccc1Nc1ccc2c(c1)OCC(=O)N2` [Compound 653, 7-[4-(difluoromethoxy)-2-methyl-anilino]-4H-1,4-benzoxazin-3-one] was 0.1 to 100 nM.
As for `Cc1cc(N2CCC(C(F)F)CC2)ccc1Nc1ccc2c(c1)OCC(=O)N2` [Compound 654, 7-[4-[4-(difluoromethyl)-1-piperidyl]-2-methyl-anilino]-4H-1,4-benzoxazin-3-one], the figure is 0.1 to 100 nM.
On to `Cc1cc(N2CC(C(F)F)C2)ccc1Nc1ccc2c(c1)OCC(=O)N2` [Compound 655, 7-[4-[3-(difluoromethyl)azetidin-1-yl]-2-methyl-anilino]-4H-1,4-benzoxazin-3-one], for which the EC50 fell in the range of 0.1 to 100 nM.
The value for `CC1=NCC(=O)Nc2ccc(Nc3ccc(N4CCC(C(F)(F)F)CC4)cc3C)cc21` [Compound 656, 5-methyl-7-[2-methyl-4-[4-(trifluoromethyl)-1-piperidyl]anilino]-1,3-dihydro-1,4-benzodiazepin-2-one] was 0.1 to 100 nM; that for `Cc1cc(N2CC(OC(F)(F)F)C2)ccc1Nc1ccc2c(c1)OCC(O)C(=O)N2` (centres unmarked) [Compound 657, 3-hydroxy-8-[2-methyl-4-[3-(trifluoromethoxy)azetidin-1-yl]anilino]-3,5-dihydro-2H-1,5-benzoxazepin-4-one] was 0.1 to 100 nM; that for `Cc1cc(N2CC(OC(F)F)C2)ccc1Nc1ccc2c(c1)OCC(O)C(=O)N2` (centres unmarked) [Compound 658, 8-[4-[3-(difluoromethoxy)azetidin-1-yl]-2-methyl-anilino]-3-hydroxy-3,5-dihydro-2H-1,5-benzoxazepin-4-one] was 0.1 to 100 nM.
